# Where “and” joins values, the source holds several entries; their conditions need not be identical. Identical values can stand only once. Ends that are not written are not given here.
# Key:
# HGC-27 xenograft tumors = test: HGC-27 xenograft tumor formation assay; assay type: in vivo, mouse; design: Tumor volume, GLUP+ / Tumor volume, GLUP++: unit not given here
# Excerpt: Mice used in this study were from SLAC Laboratory Animal (Shanghai, China), and included 4-week-old BALB/c nude mice (female) and 8-week-old C57BL/6J mice (male and female). Tumors were allowed to grow to an average size of ~60 mm^3 and then the mice were randomly allocated to groups of 5–6 animals. No blinding was used in the treatment schedules for these experiments since the different treatments were identified by different marks on the tail. Based on our previous experience, 5–6 animals per group would provide statistically significant data while keeping the number of animals used to a minimum. Tumor size was determined by taking caliper measurements of tumor length, width and depth; tumor volume was calculated as 0.5236 × length × width × depth (mm^3).
# Healthy female BALB/c nude mice were maintained in pathogen-free conditions to which they were allowed to acclimate for 1 week before being used. For the tumor formation assay, tumor cells (1 × 10^6) were injected into the respective flanks of the mice. Mice in which tumors were detected with an average size of ~60 mm^3 were biweekly administered 1 or 5 mg/kg GLUP via subcutaneous injection. These mice were sacrificed after 4 weeks, and tumor volumes were then measured.
# TEAD4 [1] = biological target: T1, TEAD4 (Homo sapiens, UniProt Q15561); test: In vitro LLPS (droplet formation) assay; assay type: biochemical
# T1 construct: His; made in house; host or cells: Escherichia coli BL21(DE3)
# T1 sequence (Q15561 whole entry): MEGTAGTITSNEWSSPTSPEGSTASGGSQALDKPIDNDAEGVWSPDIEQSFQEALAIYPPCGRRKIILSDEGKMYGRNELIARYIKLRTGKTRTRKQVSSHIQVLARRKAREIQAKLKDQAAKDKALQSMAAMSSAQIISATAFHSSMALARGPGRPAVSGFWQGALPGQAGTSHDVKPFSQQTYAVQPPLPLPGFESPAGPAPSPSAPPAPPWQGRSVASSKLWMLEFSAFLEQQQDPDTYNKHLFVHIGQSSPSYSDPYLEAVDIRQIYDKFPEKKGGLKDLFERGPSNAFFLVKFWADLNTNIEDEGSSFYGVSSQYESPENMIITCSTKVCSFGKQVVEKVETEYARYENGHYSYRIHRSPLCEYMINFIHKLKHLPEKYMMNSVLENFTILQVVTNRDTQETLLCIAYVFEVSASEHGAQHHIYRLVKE
# Protocol: LLPS was induced at room temperature by diluting proteins and NaCl to specified concentrations (20, 150, 500 mM). After subsequent mixing, 10 μl of the reaction solution were gently transferred onto a 20 mm glass-bottomed dish (NEST, 801001) for differential interference contrast (DIC) imaging performed using a Zeiss LSM 880 confocal microscope equipped with a 20× water immersion objective lens. Unless otherwise indicated (e.g., in the figure legend), the final concentration of purified protein used for in vitro LLPS assays was 40 μM.
# [2] = test system: trypsin, actinase E, thermolysin, proteinase K, chymotrypsin-α; test: Stability of peptides treated with proteases (gel); assay type: in vitro ADME; settings: 30 °C for 1 h, gel read-out
# Excerpt: To improve the stability and bioavailability of glup, we subjected it to disulfide-cyclization and C-terminal amidation to generate a macrocyclic version of the peptide and denoted it as GLUP (Fig. 5D). […] However, there were no significant differences in solubility, permeability, and TEAD4-binding affinity between GLUP and glup (Fig. 5F and Appendix Figs. S5F–H). […] These droplets rapidly dissolved when exposed to increased concentrations of NaCl (Fig. 5G, right).
# Appendix Figure S5. Optimization of the Linker Peptide
# A. Fluorescence polarization (FP) assay to detect the interaction of purified TEAD4 protein with FA M-labeled glup. mP, millipolarization (FP values). B. Microscale […]
# protein with glup or glupmut. Kd values are shown. glupmut, an interaction-dead control peptide with the sequence […]. C. Crosslinking assay of TEAD4 […]
# oligomerization in the presence of glup or glupmut after DSS treatment. D. Crosslinking assay of TEAD4 oligomerization in the presence of glup or GLUP with or without DSS treatment. E. Gels assessing protein stability levels of glup and GLUP after they were treated with indicated proteases. TR, trypsin; AE, actinase E; TH, thermolysin; PK, proteinase K; CH-α, chymotrypsin-α. […]
# (right). […] The data were analyzed using one-way ANOVA, followed by the Tukey’s post-hoc test. *, p < 0.05; **, […]
# TEAD4 [3] = biological target: T1, TEAD4; test: In vitro DSS-cross-linking assay of TEAD4 oligomerization; assay type: biochemical; settings: 5 µM protein, 30 min 30 °C, DSS 3 mM, SDS-PAGE
# Protocol: The deployed cross-linking reaction system contained 20 mM HEPES pH 7.5, 250 mM NaCl and 5 µM tested proteins with a total volume of 20 µl. This system was allowed to incubate for 30 min at 30 °C, and then combined with disuccinimidyl suberate (DSS) at a final concentration of 3 mM, and the mixtures were further incubated at 4 °C for 20 min. The cross-linking reaction was stopped by adding 1 M Tris HCl (pH 8.5) to the incubated mixture at 4 °C, and allowing the mixture to sit for 10 min, and then boiling it in 1×SDS loading buffer to provide samples for SDS-PAGE analysis.
# HGC-27 cells = test: RNA sequencing; assay type: cell-based, human; settings: GLUP-treated HGC-27 cells
# Protocol: For RNA sequencing, HGC-27 cells in 6-well plates were treated with GLUP peptide at 10 μg/ml for 48 h. The stocking buffer (20 mM HEPES pH 7.5, and 100 mM NaCl) was used as a negative control. Total RNA was extracted from at least two biological replicates. Extracted RNA was monitored for its quality using a 2100 Expert Bioanalyzer (Agilent) before being sent for library preparation and RNA sequencing (Majorbio). The RNA sequencing data were analyzed on a free online Majorbio I-Sanger Cloud Platform (www.majorbio.com).
# [4] = test system: TEAD4^high or TEAD4^low GC patient-derived xenografts; test: Patient-derived xenograft (PDX) model; assay type: in vivo, mouse; design: Tumor area, TEAD4High PDX / Tumor area, TEAD4Low PDX: unit not given beside the values
# Protocol: To establish PDX models, cell suspensions from GC patients were prepared as they were for PDOs. Subcutaneous implantation was performed on one flank of 5-week-old SCID mice weighing from 16 to 18 g and that were anesthetized using a isoflurane/oxygen mixture. Tumor growth was monitored by taking biweekly measurements of the implantation sites. Serial engraftments of each tumor were performed when the tumor reached a volume of ~500 mm^3. Subsequently, PDX tumors were enzymatically disassociated to form a single-cell suspension. To reduce murine cell populations, the cell suspension was then subjected to magnetic mouse cell depletion using a MACS mouse cell depletion kit (Miltenyi Biotech, Bergisch Gladbach, Germany). Following the cell depletion, all established PDX cell lines were maintained at steady rates of proliferation in RPMI 1640 medium. Additionally, a small piece of tumor tissue was obtained using a scalpel and fixed in 10% formalin-buffered saline for histological analysis.
# [5] = 5 mg/kg GLUP daily for 15 d, individual mice, n = 8 (source data Fig 8I)
substance,measurement,setting,value
RRVCVHFHFSLSLR-NH2 (C-terminus assumed) [glup],Growth of xenografted tumors,HGC-27 xenograft tumors; 1 or 5 mg/kg GLUP,inhibited growth of xenografted tumors in a dose-dependent manner
same,"Tumor volume, GLUP+","HGC-27 xenograft tumors; nude mice, 1 mg/kg GLUP s.c. biweekly, individual mice, n = 5 (source data Fig 7E), 1 mg/kg",0.858 and 0.629 and 0.519 and 0.753 and 0.732
same,"Tumor volume, GLUP++","HGC-27 xenograft tumors; nude mice, 5 mg/kg GLUP s.c. biweekly, individual mice, n = 5 (source data Fig 7E), 5 mg/kg",0.345 and 0.321 and 0.256 and 0.423 and 0.503
same,Turbidity of TEAD4 solution after GLUP,"TEAD4 [1]; PEG solution, vials before and after GLUP",high turbidity in a PEG solution
same,TEAD4 droplet formation,"TEAD4 [1]; mCherry-TEAD4 with FAM-GLUP 20, 40, 80 µM",strongly promoted TEAD4 droplet formation
same,Stability towards various proteases,[2],almost completely digested
same,Stability towards various proteases,[2]; listed as GLUP,remained intact
same,TEAD4 oligomerization in DSS cross-linking,TEAD4 [3],induced TEAD4 oligomerization in a concentration-dependent manner
same,TEAD4 oligomerization in DSS cross-linking,TEAD4 [3]; listed as GLUP,strongly induced TEAD4 oligomerization
same,GSEA of TEAD signature genes,HGC-27 cells,negative enrichment of TEAD signature genes
same,"Tumor area, TEAD4High PDX",[4]; [5],0 and 0.0472 and 0.0501 and 0.0406 and 0.03159 and 0.05051
same,"Tumor area, TEAD4Low PDX",[4]; [5],0.09232 and 0.08466 and 0.08264 and 0.05322 and 0.1278 and 0.08635 and 0.1028 (2×)
same,"Tumor response, TEAD4^high PDX",[4]; GLUP (i.v.) for 2 weeks,significantly regressed
same,"Tumor response, TEAD4^low PDX",[4]; GLUP (i.v.) for 2 weeks,did not respond to the GLUP treatment
